Patent US20240301409A1, “Chemically Modified Small Activating RNA” (RACTIGEN THERAPEUTICS, priority 2021, published 2024)
Oligonucleotides are written 5' to 3', each unit as a sugar letter and its base; * is a phosphorothioate linkage, no mark a phosphodiester; rarer units and linkages stand in square brackets, end groups in braces. Plain capitals give the bases only. m = 2'-O-methyl; r = 2'-OH (RNA); f = 2'-fluoro

How the values were obtained:
[1] = system: Rag1-40 target sequence in the 3′ UTR of firefly luciferase, COS-1 cells
Method: A 26 bp fragment comprising the target site of Rag1-40 was cloned in the antisense orientation into the 3′ UTR region of the firefly luciferase gene in a pmirGLO dual luciferase vector. Vector plasmids were co-transfected with the indicated saRNAs into COS-1 cells. Cells were lysed 48 hours after transfection, and the resulting lysates were assessed for luciferase activity. Data represent mean±SD of at least two independent experiments. Dashed line represents comparisons to blank control (top dashed line) and Rag1-40 (bottom dashed line). Values close to the top dashed line indicate no off-target effect.
A 26 bp fragment comprising the Rag1-40 target sequence was cloned in the antisense orientation into a multiple cloning site (MCS) of the 3′ untranslated region of firefly luciferase of the pmirGLO dual luciferase vector (Promega, Fitchburg, WI), to obtain pOff-Target plasmid. Following E. coli transformation and overnight incubation, plasmids for each construct were prepared by standard method. Each plasmid was transfected into COS-1 monkey kidney epithelial cells using Lipofectamine 3000 (Invitrogen, Carlsbad, CA). Subsequently, saRNA was transfected using RNAiMAX. After 24 hours of incubation, COS-1 cells were lysed with 1× lysis buffer, and luciferase activity was measured using dual luciferase reporter gene assay system (Promega, WI, USA) following manufacturer's instructions.
To assess the off-target effects of unmodified and modified saRNAs, a sequence complementary to the sense oligonucleotide strand of Rag1-40 was cloned into the 3′UTR region of the luciferase gene in a pmirGLO dual luciferase vector. The vector plasmid was co-transfected with the saRNA into COS-1 cells. Cells were lysed 48 hours after transfection and the resulting lysates were assessed for luciferase activity.

[2] = target: T1, RNase A (Bos taurus, UniProt P61823)
T1 sequence (P61823 27-150): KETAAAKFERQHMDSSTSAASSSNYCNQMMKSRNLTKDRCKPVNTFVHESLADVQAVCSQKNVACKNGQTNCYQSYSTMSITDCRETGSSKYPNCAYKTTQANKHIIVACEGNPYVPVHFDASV
Method: The duplexes obtained at each time point above were each added to 1 μL of 10× loading buffer, and then frozen in liquid nitrogen. After incubation, all samples were detected for the double-stranded RNA by 4% agarose gel electrophoresis, and the content of each duplex was analyzed by Image J software.
The duplexes obtained at each time point indicated above were each added to 1 μL of 10× loading buffer, and then frozen in liquid nitrogen. After incubation, all samples were detected for the double-stranded RNA by 4% agarose gel electrophoresis, and the content of each duplex was analyzed by Image J software.
saRNA (1.5 μL, 10 μM) was incubated at a final concentration of 0.02 mg/mL in PBS in the presence of RNase A (Amresco, OH, USA) at 37° C. for different durations. At the end of the incubation, the mixture was snap frozen in liquid nitrogen to stop nuclease activity. Samples were analyzed on a 4% agarose gel and examined for duplex degradation.
All chemically modified duplexes (Rag1-40-1 to Rag1-40-32) were incubated with 0.02 μg/L of RNase A for different durations (0 to 96 hours). At the end of the incubation, the size and amount of duplexes were detected by agarose gel electrophoresis.

[3] = system: T24 cells; test: Cellular proliferation assay (CCK8) in T24 cells, alone and combined with Mitomycin C or valrubicin; format: cell-based, human
Source text: After the transfection, the number of viable cells was detected with a CCK8 kit, and plotted as the percentage of the blank control treatment group. […] A transfection sample without oligonucleotide served as a blank control. Non-specific duplex (dsCon) transfected sample served as a negative control. Data are presented as mean±SD of at least two independent experiments. The values below the dashed line indicate stronger growth inhibitory activity compared to duplex Rag1-40 without chemical modification.
T24 cells were transfected with RAG1-40-31 at concentrations of 0.1, 0.5, 1, 5, 10, 25 and 50 nM for 24 hours, and then Mitomycin C was added at concentrations of 1, 10, 100, 1000 and 10000 nM. The combined treatment was carried out with concentrations in pairs. After treatment, the cellular proliferation was detected by CCK8 kit. FIGS. 16A-16B show the relative proliferation proportion of T24 cells after the combined treatment with chemically modified saRNA RAG1-40-31 and valrubicin. […] Control and DMSO are the blank transfection control and the solvent for dilution control, respectively.
T24 cells were transfected with RAG1-40-31 at concentrations of 0.1, 0.5, 1, 5, 10, 25 and 50 nM for 24 hours, and then valrubicin at concentrations of 1, 10, 100, 1000 and 10000 nM was added. The combined treatment was carried out with concentrations in pairs. After treatment, the cellular proliferation was detected by CCK8 kit.
(§1) Human bladder cancer cells Ku-7-LG (ATCC), J82 (ATCC) and T24 (ATCC) were cultured in McCoy medium (Gibco) comprising 10% calf serum (Sigma-Aldrich) and 1% penicillin/Streptomycin (Gibco). Cells were cultured at 37° C. under 5% CO2. Ku-7-LG, J82 and T24 cells were plated into 12-well plates at 10×10^4 cells per well, transfected with the small RNA at a concentration of 10 nM (unless otherwise specified) for three days, using RNAiMax (Invitrogen, Carlsbad, CA) according to the manufacturer's instructions. Two replicate wells were set for each treatment.
(§2) Cells were plated in a 96-well plate at 2˜4×10^3 cells/well, cultured overnight, and transfected with the oligonucleotide duplexes. Three days after transfection, CCK8 (Dojindo) was used to detect cellular proliferation following manufacturer's instructions. The experimental steps are briefly described as follows: 10 μL of CCK8 solution was added to each well, incubated at 37° C. for 1 hour, and then the absorbance at 450 nm was measured using a microplate reader.
It is known that p21 induction by saRNA is that a variety of tumor suppressor factors such as p21 protein suppress the proliferation of cancer cells. To evaluate the effect of chemically modified saRNAs on the function of cancer cells, cells (Ku-7-LG and T24) were transfected with 10 nM unmodified and modified saRNAs for 72 hours, and the cellular proliferation was determined by CCK8. […] Furthermore, there was a correlation between RNA activating activity (FIGS. 7A-7B) and suppression of cellular proliferation activity (FIGS. 8A-8B). Strong p21 activators are usually also strong cytostatics.

[4] = system: J82 cells; test: Cellular proliferation assay (CCK8) in J82 cells, combined with Mitomycin C or valrubicin; format: cell-based, human
Method: J82 cells were transfected with RAG1-40-31 at concentrations of 0.1, 0.5, 1, 5, 10, 25 and 50 nM for 24 hours, and then Mitomycin C at concentrations of 1, 10, 100, 1000 and 10000 nM was added. The combined treatment was carried out with concentrations in pairs. After treatment, the proliferation of cells was detected using CCK8 kit. FIGS. 14A-14B show the relative proliferation proportion of J82 cells after the combined treatment with chemically modified saRNA RAG1-40-31 and valrubicin. […] Control and DMSO are the blank transfection control and the solvent for dilution control, respectively.
J82 cells were transfected with RAG1-40-31 at concentrations of 0.1, 0.5, 1, 5, 10, 25 and 50 nM for 24 hours, and then valrubicin at concentrations of 1, 10, 100, 1000 and 10000 nM was added. The combined treatment was carried out with concentrations in pairs. After treatment, the cellular proliferation was detected by CCK8 kit. FIGS. 15A-15B show the relative proliferation proportion of T24 cells after the combined treatment with chemically modified saRNA RAG1-40-31 and Mitomycin C. […] Control and DMSO are the blank transfection control and the solvent for dilution control, respectively.
as §1, §2
In this example, chemically modified saRNA RAG1-40-31 was used in combination with clinical chemical agents to evaluate the suppressing effect of the combined agents on cancer cells.

“Rag1-40-30: saRNA duplex: sense fCfCAACUCAUUCUCCAAG*U*C (SEQ ID NO 16); antisense fU*A*fCfUfUGGAGAAfUGAGfUfUGG*fC*A (SEQ ID NO 11) (sense fCfCrArArCrUrCrArUrUrCrUrCrCrArArG*rU*rC; antisense fU*rA*fCfUfUrGrGrArGrArAfUrGrArGfUfUrGrG*fC*rA)” was tested, and the “off-target effect compared to unmodified Rag1-40, in words” value [1] was “mitigated or similar off-target effects” and the “degradation of duplex at 96 hours” value [2] was “little or no signs of degradation”.

For “Rag1-40-12: saRNA duplex: sense fCfCAACUCAUUCUCCAAGfUfC (SEQ ID NO 14); antisense fUACUfUGGAGAAfUGAGUfUGG*fC*A (SEQ ID NO 9) (sense CCAACUCAUUCUCCAAGUC; antisense UACUUGGAGAAUGAGUUGGCA; 2'-F and phosphorothioate modifications; modified_base (1)..(19) (1,2,18,19)=2′-fluoro; modified_base (1)..(20) (1,5,12,17,20)=2′-fluoro; modified_base (19)..(21) (19,20,21)=phosphorothioate (PS) backbone modification)”, the “off-target effect compared to unmodified Rag1-40, in words” value [1] was “mitigated or similar off-target effects” and the “time to complete degradation” value [2] was ≤ 24 h.

In the case of “Rag1-40-10: saRNA duplex: sense fCfCAACUCAUUCUCCAAGfUfC (SEQ ID NO 14); antisense fUACUfUGGAGAAfUGAGUfUGGfCA (SEQ ID NO 7) (sense CCAACUCAUUCUCCAAGUC; antisense UACUUGGAGAAUGAGUUGGCA; 2'-F modifications; modified_base (1)..(19) (1,2,18,19)=2′-fluoro; modified_base (1)..(20) (1,5,12,17,20)=2′-fluoro)”, the “off-target effect compared to unmodified Rag1-40, in words” value [1] is reported as “completely inhibited” and the “time to complete degradation” value [2] is reported as ≤ 24 h.

CCCCC(=O)OCC(=O)[C@]1(O)Cc2c(O)c3c(c(O)c2[C@@H](O[C@H]2C[C@H](NC(=O)C(F)(F)F)[C@H](O)[C@H](C)O2)C1)C(=O)c1c(OC)cccc1C3=O [valrubicin, Valrubicin, reference compound] was tested, and the “Relative proliferation proportion of T24 cells” value ([3]; RAG1-40-31 0 nM + valrubicin 1 nm) was 100.0%, the “Relative proliferation proportion of T24 cells” value ([3]; RAG1-40-31 0 nM + valrubicin 10 nm) was 100.0% and the “Relative proliferation proportion of T24 cells” value ([3]; RAG1-40-31 0 nM + valrubicin 100 nm) was 100.0%. For the same compound, the “Relative proliferation proportion of T24 cells” value ([3]; RAG1-40-31 0 nM + valrubicin 1000 nm) was 100.0%, the “Relative proliferation proportion of T24 cells” value ([3]; RAG1-40-31 0 nM + valrubicin 10000 nm) was 100.0% and the “Relative proliferation proportion of J82 cells” value ([4]; RAG1-40-31 0 nM + valrubicin 1 nM) was 100.0%. For the same compound, the “Relative proliferation proportion of J82 cells” value ([4]; RAG1-40-31 0 nM + valrubicin 10 nM) was 100.0%, the “Relative proliferation proportion of J82 cells” value ([4]; RAG1-40-31 0 nM + valrubicin 100 nM) was 100.0% and the “Relative proliferation proportion of J82 cells” value ([4]; RAG1-40-31 0 nM + valrubicin 1000 nM) was 100.0%. For the same compound, the “Relative proliferation proportion of J82 cells” value ([4]; RAG1-40-31 0 nM + valrubicin 10000 nM) was 100.0%.

With “Rag1-40-7: saRNA duplex: sense mCmCAACUCAUUCUCCAAGmUmC (SEQ ID NO 5); antisense U*A*fCfUfUGGAGAAfUGAGfUfUGG*fC*A (SEQ ID NO 12) (sense mCmCrArArCrUrCrArUrUrCrUrCrCrArArGmUmC; antisense rU*rA*fCfUfUrGrGrArGrArAfUrGrArGfUfUrGrG*fC*rA)” the “off-target effect compared to unmodified Rag1-40, in words” value [1] was “mitigated or similar off-target effects” and the “degradation of duplex at 96 hours” value [2] was “little or no signs of degradation”.

With “Rag1-40-26: saRNA duplex: sense fCfCAACUCAUUCUCCAAG*U*C (SEQ ID NO 16); antisense fUACUfUGGAGAAfUGAGUfUGGfCA (SEQ ID NO 7) (sense fCfCrArArCrUrCrArUrUrCrUrCrCrArArG*rU*rC; antisense fUrArCrUfUrGrGrArGrArAfUrGrArGrUfUrGrGfCrA)” the “off-target effect compared to unmodified Rag1-40, in words” value [1] was “increased off-target effects” and the “time to complete degradation” value [2] was ≤ 24 h.

With “Rag1-40-28: saRNA duplex: sense fCfCAACUCAUUCUCCAAG*U*C (SEQ ID NO 16); antisense fUACUfUGGAGAAfUGAGUfUGG*fC*A (SEQ ID NO 9) (sense fCfCrArArCrUrCrArUrUrCrUrCrCrArArG*rU*rC; antisense fUrArCrUfUrGrGrArGrArAfUrGrArGrUfUrGrG*fC*rA)” the “off-target effect compared to unmodified Rag1-40, in words” value [1] was “mitigated or similar off-target effects” and the “time to complete degradation” value [2] was ≤ 24 h.

For CO[C@@]12[C@H](COC(N)=O)C3=C(C(=O)C(C)=C(N)C3=O)N1C[C@@H]1N[C@@H]12 [MMC, Mitomycin C, reference compound], the “Relative proliferation proportion of T24 cells” value ([3]; RAG1-40-31 0 nM + MMC 1 nM) was 100.0%, the “Relative proliferation proportion of T24 cells” value ([3]; RAG1-40-31 0 nM + MMC 10 nM) was 100.0% and the “Relative proliferation proportion of T24 cells” value ([3]; RAG1-40-31 0 nM + MMC 100 nM) was 100.0%. For the same compound, the “Relative proliferation proportion of T24 cells” value ([3]; RAG1-40-31 0 nM + MMC 1000 nM) was 100.0%, the “Relative proliferation proportion of T24 cells” value ([3]; RAG1-40-31 0 nM + MMC 10000 nM) was 100.0% and the “Relative proliferation proportion of J82 cells” value ([4]; RAG1-40-31 0 nM + MMC 1 nM) was 99.9%. The “Relative proliferation proportion of J82 cells” value ([4]; RAG1-40-31 0 nM + MMC 10 nM) was 99.9%, the “Relative proliferation proportion of J82 cells” value ([4]; RAG1-40-31 0 nM + MMC 100 nM) was 99.9% and the “Relative proliferation proportion of J82 cells” value ([4]; RAG1-40-31 0 nM + MMC 1000 nM) was 100.0%. For the same compound, the “Relative proliferation proportion of J82 cells” value ([4]; RAG1-40-31 0 nM + MMC 10000 nM) was 100.0%.

In the case of “Rag1-40-22: saRNA duplex: sense mCmCAACUCAUUCUCCAAG*U*C (SEQ ID NO 15); antisense fU*A*fCfUfUGGAGAAfUGAGfUfUGG*fC*A (SEQ ID NO 11) (sense CCAACUCAUUCUCCAAGUC; antisense UACUUGGAGAAUGAGUUGGCA; 2'-OMe, 2'-F, phosphorothioate modifications; modified_base (1)..(2) (1,2)=2′-O-methyl(2′-OMe); modified_base (17)..(19) (17,18,19)=phosphorothioate (PS) backbone modification; modified_base (1)..(21) (1,2,3,19,20,21)=phosphorothioate (PS) backbone modification; modified_base (1)..(20) (1,3,4,5,12,16,17,20)=2′-fluoro)”, the “off-target effect compared to unmodified Rag1-40, in words” value [1] is reported as “completely inhibited” and the “degradation of duplex at 96 hours” value [2] is reported as “little or no signs of degradation”.

“Rag1-40-6: saRNA duplex: sense mCmCAACUCAUUCUCCAAGmUmC (SEQ ID NO 5); antisense fU*A*fCfUfUGGAGAAfUGAGfUfUGG*fC*A (SEQ ID NO 11) (sense mCmCrArArCrUrCrArUrUrCrUrCrCrArArGmUmC; antisense fU*rA*fCfUfUrGrGrArGrArAfUrGrArGfUfUrGrG*fC*rA)” was tested, and the “off-target effect compared to unmodified Rag1-40, in words” value [1] was “mitigated or similar off-target effects” and the “degradation of duplex at 96 hours” value [2] was “little or no signs of degradation”.
